Experimental data taken from US11299453B2 (Universität zu Köln, priority 2017, dated 2022).

What was measured:
[1] = test system: αPIG-AT25 miPSC-derived cardiomyocytes; experiment: Cell viability (PrestoBlue) of miPSC-derived cardiomyocytes; format: cell-based, murine
Protocol: The differentiation of transgenic mPSCs was initiated in mass cultures as briefly described below. One million cells were transferred per non-adhering 10 cm dish with 14 ml differentiation medium composed of Iscove's Modified Dulbecco's Medium (IMDM) with GlutaMAX (Life Technologies) supplemented with 20% FBS, 1×NEAA and 100 μM β-ME. Embryoid bodies (EBs) from day 2 of differentiation were transferred in a 250 ml spinner flask (CELLSPIN 250, Integra Biosciences, Fernwald, Germany) with a density of 3×10^4 EBs per 200 ml of differentiation medium. On the first 2 days of differentiation medium was supplemented with 50 μg/ml L-ascorbic acid phosphate (AA, Wako pure chemicals industry, Japan) in order to promote the development of cardiac cells. For the selection of GFP-expressing CMs, 50 ml of the medium was exchanged with fresh differentiation medium and 8 μg/ml puromycin (Life Technologies) were supplemented on day 9 of differentiation. Two days later, the cardiac clusters were transferred on non-adhering 10 cm dishes with fresh differentiation medium containing 8 μg/ml puromycin. In the further course of differentiation medium was exchanged every 2-3 days. If not otherwise specified, the purification of GFP-positive CMs with puromycin was continued until day 16 of differentiation. For single cell analyses and transfer of PSC-derived CMs on cell culture plates, cardiac clusters were dissociated with 0.25% trypsin-EDTA (Life Technologies) supplemented with 50 U/ml DNase I (AppliChem, Darmstadt, Germany) for 20-30 min at 37° C. The mPSC-derived CMs were filtered through a polyamide membrane with […] pore size (Sefar, Heiden, Switzerland). Cell numbers were determined with a Neubauer hemocytometer and cells were stored on ice until further use.
Serial dilutions of DMSO stock solutions of PluriSIn #1 (Sigma-Aldrich, catalog number SML0682) or one of small molecules SM1-SM10, were prepared from 20 mM stock solutions with cell culture medium. Murine PSCs were dissociated with 0.05% trypsin-EDTA, seeded on 0.1% gelatin-coated 96-well plates with a density of 5000 cells/well and cultured in maintenance medium supplemented with 1000 U/ml of mLIF. After 1 day, cells were incubated with 40 μM PluriSIn #1 and derivatives for 72 h or with 0.01-25 μM SMs for 48 h, respectively. For treatment of corresponding PSC-derived CMs with SMs, puromycin-selected miPSC-CMs from day 14 of differentiation were dissociated with 0.25% trypsin-EDTA as described above and plated on 96-well plates (5×10^4 cells/well) which were pre-coated with 5 μg/ml fibronectin (PromoCell, Heidelberg, Germany). After culturing miPSC-CMs with 8 μg/ml puromycin for 2 more days, they were incubated in differentiation medium supplemented with 0.1-100 μM of SMs for 48-72 h. Following small molecule treatment, cell viability was determined with PrestoBlue cell viability reagent (Life Technologies). To this end, cells were washed with PBS (with calcium and magnesium, Life Technologies) and incubated with PrestoBlue reagent diluted in cell culture medium for 40 min at 37° C.
Fluorescence intensities correlating with the number of viable cells in the wells were measured in black flat-bottom 96-well plates (Greiner Bio-One, Kremsmünster, Austria) with a GeniosPro microplate reader (Tecan, Männedorf, Schweiz).
The selectivity of compounds was investigated by comparing their cytotoxicity against undifferentiated iPSCs and iPSC-derived CMs. Murine iPSCs αPIG-AT25 were incubated for 48 h with compounds SM1, SM2, SM4, SM5, SM6 and SM8 in concentrations of 0.01 to 10 μM. Cell culture and cardiac differentiation were performed as described above. Experiments were run at least in quadruplicate. The cell viability was determined using PrestoBlue cell viability reagent.
The viability of salicylic diamine-treated CMs was confirmed by 72 h of exposure to concentrations of 0.01 μM, 0.1 μM, 1 μM, 10 μM and 25 μM of compounds SM1, SM2, SM4, SM5, SM6 and SM8.

[2] = test system: contaminating colony-forming PSCs in unpurified EBs of murine iPSCs; experiment: Colony formation assay after treatment of unpurified EBs; format: cell-based; conditions: day 9 to day 16: SM6 1 μM then 5 μM from day 14; puromycin 8 μg/ml
Protocol: Aiming at complete elimination of remaining PSCs in PSC-derived cell aggregates, murine cardiac clusters were pre-purified with 2-4 μg/ml puromycin from day 9 until day 14 of differentiation in order to prevent complete removal of PSCs and then treated with SM6 for 2 days to assess its potential for removal of contaminating PSCs in the absence of puromycin. After treatment, cardiac clusters were dissociated with 0.25% trypsin-EDTA supplemented with 50 U/ml of DNase I and the level of PSC contamination was determined using colony formation assay, flow cytometry for SSEA-1 and RT-PCR for Oct4. In colony formation assays 2×10^5 cells were plated on a 6 cm cell culture dish containing MEF and cultured in maintenance medium supplemented with 1000 U/ml of mLIF for 7-10 days. Developing PSC colonies on MEF plates were quantified and visualized with 1% crystal violet (Fluka Analytical, St. Louis, USA) diluted in methanol (Applichem).
Purifying the whole CM population including GFP-negative CMs in murine PSC-derived EBs was tested with SM6 as well. […] The percentage of CM population in EBs was monitored by flow cytometry and the amount of contaminating PSCs was quantified by colony formation assay as described above. Fluorescence images of PSC-derived cell aggregates were captured with a Zeiss Axiovert 200M fluorescence microscope and analyzed with Zeiss Axiovision 4.5 software. […]

Structure (SMILES) | effect on the viability of cardiomyocytes ([1]; 10 μM, two day-treatment) | toxicity to differentiated cardiomyocytes ([1]; summary in description) | reduction of contaminating colony-forming PSCs [2] | decrease of cardiomyocyte viability, in average over SM1, SM4 and SM8 ([1]; 10 μM, 72 h of exposure)
Oc1ccccc1CN[C@@H]1CCCC[C@H]1NCc1ccccc1O [SM6, (1R,2R)-N,N′-di(2-hydroxybenzyl)-1,2-diaminocyclohexane] | no significant effect | not toxic | 98.88±1.04% | –
Oc1c(CNC2CCCC[C@@H]2NCc2cccc(-c3ccccc3)c2O)cccc1-c1ccccc1 (stereo partly drawn) [SM8, (1S,2R)-N,N′-di[(2-hydroxy-3-phenyl)-benzyl]-1,2-diaminocyclohexane] | – | – | – | 79.79±14.72%
COc1ccc(C[C@H](N)C(=O)N[C@H]2[C@@H](O)[C@H](n3cnc4c(N(C)C)ncnc43)O[C@@H]2CO)cc1 [puromycin, reference compound] | – | – | 97.55±4.02% | –
